Results from patent US20060258581A1, “Methods and composition for derepressions of IAP-inhibited caspase” (priority 2001, published 2006).
Entries after “also recorded” stand apart in the source; their conditions may differ. Where two headings read alike, the source gives them in different places.

How the values were obtained:
full length XIAP = full length XIAP (Homo sapiens, UniProt P98170); assay: Potency of IAP antagonists in vitro (Table VIII; caspase derepression / SMAC competition with full length XIAP)
full length XIAP, sequence (P98170 whole entry): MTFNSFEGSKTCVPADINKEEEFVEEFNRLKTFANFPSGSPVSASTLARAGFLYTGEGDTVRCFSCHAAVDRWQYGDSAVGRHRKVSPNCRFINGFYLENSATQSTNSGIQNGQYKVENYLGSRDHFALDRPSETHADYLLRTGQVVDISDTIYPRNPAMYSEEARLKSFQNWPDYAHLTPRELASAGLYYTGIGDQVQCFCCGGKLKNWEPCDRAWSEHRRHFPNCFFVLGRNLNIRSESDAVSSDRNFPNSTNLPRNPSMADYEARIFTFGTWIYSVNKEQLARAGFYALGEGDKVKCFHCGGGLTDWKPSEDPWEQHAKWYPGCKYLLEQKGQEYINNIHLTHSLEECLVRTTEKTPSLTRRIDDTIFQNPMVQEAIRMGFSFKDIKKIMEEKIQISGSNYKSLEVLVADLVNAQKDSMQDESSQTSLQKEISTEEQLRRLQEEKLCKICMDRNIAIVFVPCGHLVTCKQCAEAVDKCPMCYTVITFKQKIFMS

[1] = system: PPC1 prostate cancer cells; assay: PPC1 prostate cancer xenograft in Balb/C nu-/nu- mice; type: in vivo; settings: 30 mg/kg i.p. for 2 or 3 days
Description: Similar data was obtained using TPI 1396-22 (see FIGS. 33a and 33b). […] In FIG. 33b, the mice were sacrificed at day 19 and the tumors excised and weighed.

Jurkat leukemia cells = assay: Jurkat leukemia cell death, Annexin V/propidium iodide flow cytometry; type: cell-based; settings: for cells killed: one day treatment
Method: The following assay was used to test the ability of individual compounds from the TPI 1396 and TPI 1391 libraries to induce apoptosis of cultured tumor cell lines. Each of the compounds listed in Table IX was individually added to Jurkat leukemia cells (6.25×10^5 cells/mL) in RPMI containing 2.5% FBS at various concentrations for 20 hours. After incubation, cells were washed and stained with FITC-conjugated Annexin V antibody and propidium iodide (Biovision; Mountain View, Calif.). Cells were incubated for 20 minutes at room temperature in the dark and fluorescence was measured by flow cytometry (FACScan, Immunocytometry system; Becton-Dickinson; San Jose, Calif.). Cells staining positive for Annexin V were deemed non-viable.
The TPI I396-34 and TPI 1391-28 compounds were further tested as set forth below.

[2] = system: PPC1, ALVA31, DU145 and HeLa cells; assay: Combination with TRAIL; type: cell-based; settings: 1 µM
Method: Similar tests of the effects of polyphenyl urea compounds on apoptosis induction by the biological agent TRAIL, an apoptosis inducing member of the Tumor Necrosis Factor (TNF) family were also performed.

[3] = system: PC-3 and LNCaP prostate cancer cell lines; assay: Clonogenic survival (colony formation) assay; type: cell-based; settings: Homo sapiens
Method: In addition to short-term cytotoxicity assays selected polyphenylurea compounds were tested for effects on clonogenic survival of cancer cells in colony formation assays, which can be considered a more stringent test of anticancer activity.

[4] = system: Du145 prostate cancer cells; assay: Combination with anticancer drugs, MTT assay; type: cell-based; settings: 10 μM, 48 hours
Method: The percentage of viable cells relative to control was determined using a MTT (3-(4,5-dimethylthiazolyl-2)-2,5-diphenyltetrazolium bromide) assay which is commercially available (Sigma). […] Similar results were obtained for PPC1 (FIG. 31b) and PC3 (FIG. 31c) prostate cancer cells treated with VP16, DOX, or TAXOL, and for H460 (FIG. 31d) lung cancer cells treated with VP16 or DOX.

[5] = system: Jurkat and HeLa tumor cell lines; assay: Tumor cell lines Jurkat and HeLa, 2 days, annexin-V; type: cell-based; parameters: dose or concentration left out as unconfirmed
Method: (§1) After 2 days, cell viability was assessed by annexin-V staining.

[6] = system: HCT-116 colon cancer cells; assay: HCT-116 colon cancer xenograft in Balb/C nu-/nu- mice; type: in vivo; settings: 30 mg/kg i.p. on days 6, 7 and 8
Method: Additional experiments were performed using a different tumor xenograft model. HCT-116 colon cancer cells (2.5 million) were injected subcutaneously in the flanks of female Balb/C nu-/nu-mice. […] Tumor volume was measured by external calipers at least twice weekly for 19 days (see FIG. 32c). On day 19, the mice were sacrificed and the tumors were excised and weighed.

[7] = system: U937 leukemia cells over-expressing XIAP; assay: U937-Neo versus U937-XIAP leukemia cells, Annexin V; type: cell-based; settings: 5 or 8 μM, 20 hours
Method: After incubation, cells were washed, stained with FITC-conjugated Annexin V antibody and propidium iodide, and fluorescence measured by flow cytometry as described in Example XI.
Equal amounts of protein were subjected to SDS-PAGE (4-20% gradient gels from ISC BioExpress, Kaysville, Utah), followed by transfer to nitrocellulose membranes. […] Secondary antibodies consisted of horseradish peroxidase (HRP)-conjugated:goat anti-mouse IgG (Bio-Rad, Hercules, Calif.). Detection was performed by the enhanced chemiluminescence (ECL) method. […] Lysates were prepared from the cells, normalized for total protein content and analyzed by SDS-PAGE immunoblotting using antibodies specific for XIAP, caspase-3, and β-actin.

HeLa cells = assay: Transfected HeLa cells, apoptosis by Annexin V; type: cell-based; settings: 5 μM, 20 hours
Method: In addition to transfecting the cells with full-length XIAP, analogous assays were performed with HeLa cells transfected with plasmids over-expressing various XIAP mutants. […] The mutant was produced by site-directed mutagenesis to modify positions 148, 219, 223, 314 and 323 to contain alanine. HeLa cells were also transiently transfected with plasmids encoding Bcl-XL, an anti-apoptotic protein that operates upstream of caspases to suppress Cytochrome C release from mitochondria. HeLa cells (2.5×10^5) were seeded onto six well plates in 2 mL DMEM H21 with 5% FBS. After 24 hrs, cells were transfected (Gene Porter) with plasmids. […] Both floating and adherent cells were then recovered from cultures, washed, and apoptosis was determined by Annexin V staining using flow cytometry.
Bcl-XL over-expression did afford resistance to traditional anticancer drugs such as etoposide and CrmA (a caspase-8 inhibitor), and protected cells from apoptosis induced by TRAIL, confirming that these anti-apoptotic proteins were functional in these experiments.

XIAP = XIAP (Homo sapiens, UniProt P98170); assay: SMAC binding/competition assay: biotinylated SMAC 7-mer on NeutrAvidin plates, GST-XIAP detected by anti-GST; settings: in words
XIAP, sequence (P98170 whole entry): as above
Method: Peptide compounds containing unnatural amino acids in the 792 series, 792-33 and 792-35 (see FIG. 12 and 20 and Example XI), and an active compound in the TPI 1332 series, TPI 1332-69, were tested for binding activity in the SMAC binding assay as described above in Example X. For this assay, biotinylated SMAC 7-mer peptide (50 ng) was bound to 96 well plates coated with NeutrAvidin (Pierce, Rockford, Ill.) at 1 mg/ml in 100 μl per well of 50 mM HEPES pH 7.4, 100 mM NaCl 1 mM EDTA, 10% sucrose, 0.1% CHAPS, 10 mM DTT.

[8] = system: mouse embryo fibroblasts, human prostate epithelial cells, peripheral blood lymphocytes; assay: Normal cells (MEFs, human prostate epithelial cells, PBLs), 2 days, annexin-V; type: cell-based; parameters: dose or concentration left out as unconfirmed
Method: as §1

[9] = system: normal bone marrow mononuclear cells; assay: Normal bone marrow mononuclear cells versus Jurkat, Annexin V, 20 hours; type: cell-based; settings: 5 μM
Method: After incubation, cells were washed, stained with FITC-conjugated Annexin V antibody and propidium iodide, and fluorescence measured by flow cytometry as described above.

COc1ccc(CCN2CCC[C@@H]2CN(C(=O)Nc2ccccc2)[C@@H](CNC(=O)Nc2ccccc2)CC2CCCCC2)cc1 [TPI 1396-34]
EC50 (full length XIAP): 77.1 µM | tumor size / growth, PPC1 xenograft [1]: reduced tumor size; also recorded: significantly slowed the rate of growth | cells killed (Jurkat leukemia cells; 5 μM): about 75% | cells killed (Jurkat leukemia cells; 8 μM): ~85% | time to maximum killing (Jurkat leukemia cells; 10 µM): about 24 hours | cytotoxicity at 1 µM (Jurkat leukemia cells; Homo sapiens, Jurkat, 20 h, 1 μM, 20 hours, read-out: % nonviable cells): 13% | cytotoxicity at 5 µM (Jurkat leukemia cells; Homo sapiens, Jurkat, 20 h, 5 μM (first column headed 5), 20 hours, read-out: % nonviable cells): 73% | cytotoxicity at 5 µM (Jurkat leukemia cells; Homo sapiens, Jurkat, 20 h, 5 μM (second column headed 5), 20 hours, read-out: % nonviable cells): 51% | cytotoxicity at 10 µM (Jurkat leukemia cells; Homo sapiens, Jurkat, 20 h, 10 μM, 20 hours, read-out: % nonviable cells): 62% | cytotoxicity at 25 µM (Jurkat leukemia cells; Homo sapiens, Jurkat, 20 h, 25 μM, 20 hours, read-out: % nonviable cells): 83% | cytotoxicity at 50 µM (Jurkat leukemia cells; Homo sapiens, Jurkat, 20 h, 50 μM, 20 hours, read-out: % nonviable cells): 85% | EC50 (Jurkat leukemia cells; Homo sapiens, Jurkat, 24 h, one-day exposure, read-out: EC50 for killing Jurkat leukemia cells): ~6.5 µM | sensitization to TRAIL-induced apoptosis [2]: sensitized | activity at 10 µM ([3]; 10 μM, read-out: colony formation, % of control): < 5% | EC50 ([3]; 3 days culture, colonies counted one week later, read-out: average EC50 dose, clonogenic survival): 3 µM | effect on dose-dependent cytotoxicity of VP16, DOX and TAXOL [4]: significantly increased dose-dependent cytotoxicity | increase of killing above background [5]: > 4 fold | tumor size / growth, HCT116 xenograft [6]: tumor size was reduced; also recorded: significantly slowed the rate of growth | effect of over-expression of XIAP on apoptosis induction [7]: resistant | apoptosis in HeLa cells over-expressing Bcl-XL (HeLa cells): not blocked | apoptosis in HeLa cells over-expressing full-length XIAP (HeLa cells): protected | apoptosis in HeLa cells transfected with a control vector (HeLa cells): induced apoptosis | competition with XIAP binding to the SMAC peptide (SMAC competition assay) (XIAP): does not compete | increase of percentage cell death above background [8]: less than one-fold | toxicity to normal bone marrow cells [9]: little toxicity
